Entries after “also recorded” stand apart in the source; their conditions may differ. No end group written: not given here.
Columns and labels:
[1] = system: α-COP D96A D115A mutant (α1-327); experiment: ITC with α1-327 D96A D115A mutant; type: binding, yeast; conditions: 10°C, 300 mM NaCl
Method: (§1) ITC experiments were conducted on a Microcal VP-ITC machine (GE Healthcare) at 10°C. Molar peptide concentration in the syringe was ten times that of protein in the cell. β'-COP constructs were gel filtered into 50 mM HEPES (pH 7.4) and 100 mM NaCl, and α-COP constructs were gel filtered into 50 mM HEPES (pH 7.4) and 300 mM NaCl prior to runs. Titration data were analyzed in ORIGIN to obtain values for stoichiometry (N), equilibrium association constant (Ka), and enthalpy of binding. All experiments were carried out at least three times with appropriate standard deviations reported.
(§2) Figure S3, related to Figure 2. Model and in vitro data of α-COP 1-327 binding to a KKxx
(§3) motif. A homology model of residues 1-327 of yeast α-COP binding to the KKTN motif from
(§4) (1 picture or pasted object on this page, not shown here)
(§5) Homology model of the α-COP N-terminal propeller
(§6) Isothermal titration calorimetry

[2] = system: α-COP R13A K15S R57S mutant (α1-327); experiment: ITC with α1-327 R13A K15S R57S mutant; type: binding, yeast; conditions: 10°C, 300 mM NaCl
Method: as §1, §2, §3, §4, §5, §6

[3] = system: α-COP D229A E273A mutant (α1-327); experiment: ITC with α1-327 D229A E273A mutant; type: binding, yeast; conditions: 10°C, 300 mM NaCl
Method: as §1, §2, §3, §4, §5, §6

[4] = target: T1, yeast β'-COP 1-304 (N-terminal WD-repeat domain), wild-type (Saccharomyces cerevisiae, UniProt P41811); experiment: ITC of dilysine motif peptides with wild-type β'1-304; type: binding; conditions: for binding by ITC (in words): 10°C, 50 mM HEPES pH 7.4, 100 mM NaCl, at least three runs
T1 construct: GST (thrombin-cleavable) (C, cleaved yes); made in house; host or cells: E. coli BL21(DE3)pLysS
T1 sequence (P41811 1-304): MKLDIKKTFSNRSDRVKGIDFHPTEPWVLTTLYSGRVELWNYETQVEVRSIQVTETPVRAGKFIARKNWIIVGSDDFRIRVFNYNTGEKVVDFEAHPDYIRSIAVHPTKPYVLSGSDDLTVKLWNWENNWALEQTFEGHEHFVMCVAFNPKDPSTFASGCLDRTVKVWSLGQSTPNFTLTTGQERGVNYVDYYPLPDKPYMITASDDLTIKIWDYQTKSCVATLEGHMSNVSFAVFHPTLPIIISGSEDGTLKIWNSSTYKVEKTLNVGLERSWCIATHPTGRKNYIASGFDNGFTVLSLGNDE
Method: as §6
equilibrium association constant (Ka), and enthalpy of binding. All experiments were carried out
100 mM NaCl to mimic physiological salt conditions. Wild type yeast α-COP (α1-327) was gel
Immediately prior to a run, the protein was
mM NaCl than at 100 mM NaCl.
and ultraviolet absorbance (Agilent 1200 UV, Agilent Technologies). Samples of β’1-304 or 1-
the construct lacks the α-solenoid domain. […]

[5] = target: β'-COP D206A E248A mutant (β'1-304) (Saccharomyces cerevisiae, UniProt P41811, D206A/E248A); experiment: biochemical
Method: (§7) The β'-COP R15A K17A R59A mutant was designed to disrupt binding to the carboxy terminus of the motif, and the D206A E248A mutant was intended to disrupt binding to the -3 lysine.
as §1, §5, §6

[6] = target: β'-COP R15A K17A R59A mutant (β'1-304) (Saccharomyces cerevisiae, UniProt P41811, K17A/R15A/R59A); experiment: biochemical
Method: as §7, §1, §5, §6

[7] = target: β'-COP D98A D117A mutant (β'1-304) (Saccharomyces cerevisiae, UniProt P41811, D117A/D98A); experiment: biochemical
Method: as §7, §1, §5, §6

Sequence of β'-COP D206A E248A mutant (β'1-304) (P41811 1-304 D206A/E248A): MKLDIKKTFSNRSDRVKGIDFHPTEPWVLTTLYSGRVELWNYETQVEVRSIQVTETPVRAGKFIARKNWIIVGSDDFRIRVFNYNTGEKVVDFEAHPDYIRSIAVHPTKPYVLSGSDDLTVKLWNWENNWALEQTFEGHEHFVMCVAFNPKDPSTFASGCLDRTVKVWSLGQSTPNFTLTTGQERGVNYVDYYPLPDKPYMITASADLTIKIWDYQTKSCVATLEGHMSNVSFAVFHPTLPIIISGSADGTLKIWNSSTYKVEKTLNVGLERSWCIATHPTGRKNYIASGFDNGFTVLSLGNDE
Sequence of β'-COP D98A D117A mutant (β'1-304) (P41811 1-304 D98A/D117A): as the sequence (P41811 1-304 D206A/E248A) above, with D98A, D117A, A206D, A248E counted along it
Sequence of β'-COP R15A K17A R59A mutant (β'1-304) (P41811 1-304 R15A/K17A/R59A): as the sequence (P41811 1-304 D206A/E248A) above, with R15A, K17A, R59A, A206D, A248E counted along it

Substance: CTFKKTN-OH [KKTN]
- binding by ITC (in words) [1]: no measurable binding
- binding by ITC (in words) [2]: no measurable binding
- binding by ITC (in words) [3]: no measurable binding

Substance: KKLIE [KKLIE peptide from p23]
- binding by ITC (in words) [4]: no measurable binding; also recorded: does not bind

Substance: KTKLL-CONH2 [amidated KTKLL peptide]
- binding by ITC (in words) [4]: no measurable binding

Substance: KTSLL [KTKLL motif variant lacking the -3 lysine]
- binding by ITC (in words) [4]: no measurable binding

Substance: RQEIIKTKLL [KTKLL]
- measured KD at 300 mM NaCl relative to 100 mM NaCl ([4]; ITC control runs in 300 mM NaCl compared to 100 mM NaCl): four- to five-fold weaker
- Kd [5]: < 300 µM
- Kd [6]: < 300 µM
- Kd [7]: < 300 µM

Substance: RRVV [RRVV peptide from p24]
- binding by ITC (in words) [4]: no measurable binding

From article PMC3521961, “Molecular Basis for Recognition of Dilysine Trafficking Motifs by COPI” (Developmental Cell, 2012)
